Data published in publication PMC12607616, “Elucidation of a bacterial pathway for catabolism of the β–β-linked dilignol pinoresinol” (mBio, 2025).
Where two headings read alike, the source gives them in different places.

Test system: T1, PinZ
T1 construct: full-length, N-terminal hexahistidine tag kept (pET-28a(+), pJM492), E. coli BL21 Star (DE3)
Test: steady-state kinetics, reversed-phase HPLC
Assay type: biochemical, Novosphingobium rhizosphaerae
Details: NADPH co-substrate, 20 mM Tris-HCl pH 7.0, 30 °C, 10 min, read-out: apparent Km

| Compound | Km (~88% e.e. (+)-pinoresinol preparation) | Km (racemate) |
| --- | --- | --- |
| COc1cc([C@H]2OC[C@H]3[C@@H]2CO[C@@H]3c2ccc(O)c(OC)c2)ccc1O [(+)-pinoresinol] | 22.1 ± 3.2 µM | – |
| COc1cc(C2OCC3C(c4ccc(O)c(OC)c4)OCC23)ccc1O (racemic) [(±)-pinoresinol] | – | 27 ± 6.6 µM |
